From patent publication US6448436B1, “Integrated process for the production of 2, 6-naphthalene dicarboxylic acid” (Mossi & Ghisolfi Overseas, S. A., priority 1999, dated 2002)

Test: Solubility of the potassium salts equilibrated in aqueous potassium carbonate solutions
Format: physicochemical
From the text: The data was gathered by equilibrating the potassium salts of 2-KNA and 2,6-K2NDA in aqueous solutions of potassium carbonate. The capped jars were contained in water baths to control the temperature and were magnetically stirred to speed the dissolution of the solids. Data derived from the solubility studies are outlined in Table 6.

[1] = 10 wt % K2CO3 aqueous solution, 35° C.
[2] = 15 wt % K2CO3 aqueous solution, 35° C.
[3] = 20 wt % K2CO3 aqueous solution, 35° C.
[4] = 20 wt % K2CO3 aqueous solution, 80° C.
[5] = 25 wt % K2CO3 aqueous solution, 35° C.
[6] = 25 wt % K2CO3 aqueous solution, 80° C.
[7] = 30 wt % K2CO3 aqueous solution, 35° C.
[8] = 30 wt % K2CO3 aqueous solution, 80° C.

Solubility Ratio 2,6-K2NDA/2-KNA (10 wt % K2CO3, 35° C.)	Solubility [1] [wt %]	Solubility Ratio 2,6-K2NDA/2-KNA (15 wt % K2CO3, 35° C.)	Solubility [2] [wt %]	Solubility Ratio 2,6-K2NDA/2-KNA (20 wt % K2CO3, 35° C.)	Solubility Ratio 2,6-K2NDA/2-KNA (20 wt % K2CO3, 80° C.)	Solubility [3] [wt %]	Solubility [4] [wt %]	Solubility Ratio 2,6-K2NDA/2-KNA (25 wt % K2CO3, 35° C.)	Solubility Ratio 2,6-K2NDA/2-KNA (25 wt % K2CO3, 80° C.)	Solubility [5] [wt %]	Solubility [6] [wt %]	Solubility Ratio 2,6-K2NDA/2-KNA (30 wt % K2CO3, 35° C.)	Solubility Ratio 2,6-K2NDA/2-KNA (30 wt % K2CO3, 80° C.)	Solubility [7] [wt %]	Solubility [8] [wt %]	Temperature dependence of solubility (aqueous K2CO3 solutions, 35° C. vs 80° C.)	Compound
0.41	13.8	0.52	6.8	1.13	0.13	2.4	5.5	1.41	0.08	0.6	1.6	1.33	0.08	0.2	0.6	only a weak function of temperature	O=C([O-])c1ccc2cc(C(=O)[O-])ccc2c1.[K+].[K+] [2,6-K2NDA, dipotassium salt of 2,6-NDA]
	33.9		13.2			2.1	41.1			0.4	19.2			0.2	7.4		O=C([O-])c1ccc2ccccc2c1.[K+] [2-KN]
